{"source": "patent US20090054510A1", "about": "“METHOD FOR IDENTIFYING COMPOUNDS FOR THE TREATMENT OF DEPRESSION” (H. LUNDBECK A/S, priority 2006, published 2009)", "key": {"hSERT [1]": {"target": "T1, hSERT (Homo sapiens, UniProt P31645)", "T1 construct": "expressed in transfected cells; host or cells: HEK293 cells expressing hSERT; membranes", "T1 sequence (P31645 whole entry)": "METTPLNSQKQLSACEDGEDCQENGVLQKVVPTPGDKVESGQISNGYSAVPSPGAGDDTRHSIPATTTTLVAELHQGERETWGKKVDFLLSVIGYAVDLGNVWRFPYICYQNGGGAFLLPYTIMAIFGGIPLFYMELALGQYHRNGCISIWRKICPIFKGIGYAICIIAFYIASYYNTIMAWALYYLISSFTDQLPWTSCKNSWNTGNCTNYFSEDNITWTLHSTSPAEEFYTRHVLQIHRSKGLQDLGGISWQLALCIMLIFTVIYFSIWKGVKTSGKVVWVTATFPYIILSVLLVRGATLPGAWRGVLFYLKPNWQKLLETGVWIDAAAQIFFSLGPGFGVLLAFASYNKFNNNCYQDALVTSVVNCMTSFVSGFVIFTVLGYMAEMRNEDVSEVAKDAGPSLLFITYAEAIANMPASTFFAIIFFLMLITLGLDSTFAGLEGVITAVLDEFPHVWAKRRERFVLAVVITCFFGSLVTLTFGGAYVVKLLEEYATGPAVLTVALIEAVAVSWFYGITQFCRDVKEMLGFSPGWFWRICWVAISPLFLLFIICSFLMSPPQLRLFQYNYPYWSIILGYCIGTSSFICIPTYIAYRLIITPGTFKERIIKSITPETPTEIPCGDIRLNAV", "format": "binding", "details": "increasing concentrations of (R)-citalopram; FIG. 2", "experimental": "Association rates are determined on membrane preparations from HEK293 cells transiently expressing hSERT. The kinetics of the association of the [^3H]compound- SERT complex is determined after incubation of aliquots consisting of 10 μg membranes from HEK293 cells transiently expressing hSERT and 290 μL [^3H]test compound pre incubated until equilibrium. Association is initiated by addition of radioligand in the absence or presence of R-citalopram (0-300 μM). Bound [^3H]test compound is measured after 0, 2, 5, 10, 15, 20, 30, 50, 70 and 90 minutes.\nHEK293 cells expressing hSERT are harvested and 10 μg HEK293-hSERT membrane is placed in each well in a 96 well microtiter plate. […] Concentration of test-compounds is varied from the nM to the μM range. Incubation-time is 0, 2, 5, 10, 15, 20, 30, 50, 70 and 90 minutes on ice or at room temperature (22° C.). Mebranes are harvested in ice-cold ELGA-water onto a GF/C fiberglass filter (Presoaked with 0.5% PEI for 30 min). Filters are rinsed twice with 2×0.5 ml ice-cold ELGA-water. The filters are dried and added 40 L of scintillation fluid."}, "[2]": {"system": "extra cellular serotonin levels (ventral hippocampus)", "assay": "3-day microdialysis in rats (minipumps)", "format": "in vivo, rat", "details": "4 mg/kg vs 10 mg/kg (S)-citalopram, oxalate salts, FIG. 4", "protocol": "(§1) Male Sprague-Dawley rats, initially weighing 275-300 g, are used\n(§2) Rats are anaesthetised with hypnorm/dormicum (2 ml/kg) and intracerebral guide cannulas (CMA/12) are stereotaxically implanted into the hippocampus, aiming to position the dialysis probe tip in the ventral hippocampus (co-ordinates: 5.6 mm posterior to bregma, lateral −5.0 mm, 7.0 mm ventral to dura or in the frontal cortex (co-ordinates: 3.2 mm anterior to bregma; lateral, 0.8 mm; 4.0 mm ventral to dura). Anchor screws and acrylic cement are used for fixation of the guide cannulas. The body temperature of the animals is monitored by rectal probe and maintained at 37° C. The rats are allowed to recover from surgery for 2 days, housed singly in cages. On the day of the experiment, a microdialysis probe (CMA/12, 0.5 mm diameter, 3 mm length) is inserted through the guide cannula.\n(§3) The probes are connected via a dual channel swivel to a microinjection pump. Perfusion of the microdialysis probe with filtered Ringer solution ([…], 3 mM KCl, 1 mM MgCl2, 1.2 mM CaCl2) is begun shortly before insertion of the probe into the brain and continued for the duration of the experiment at a constant flow rate of 1 μL/min. After 180 min of stabilisation, the experiments are initiated. Dialysates were collected every 20 min. […]\n(§4) Concentration of 5-HT in the dialysates is analysed by means of HPLC with electrochemical detection. […]"}, "hSERT [3]": {"target": "T1, hSERT", "assay": "[3H]-(S)-citalopram dissociation from SERT (allosteric site binding)", "protocol": "The assay procedure was modified based on the methods described in Pharmacol. Toxicol., 80, 197-201, 1997 and J.Neurochem., 92, 21-28, 2005.\nPeakRapid 293 cells (Edge Biosystems, Gaithersburg, Md.) were cultured in Dulbecco's Modified Eagle Medium (DMEM) supplemented with 10% bovine calf serum, 4 mM L-glutamine, 100 units/ml penicillin and 100 μg/ml streptomycin) at 37° C., 5% CO2. Human SERT cDNA in a mammalian expression vector was transiently transfected into PeakRapid 293 cells using 10 μg total DNA in 150 cm2 flasks by lipofectamine method (Invitrogen, Carlsbad, Calif.). Two days after transfection, membranes were harvested.\nBinding assays were conducted in buffer containing 50 mM Tris, 120 mM NaCl, and 5 mM KCl, PH 7.4. Prior to dissociation binding, [3H]-(S)-citalopram (40 nM) was incubated with hSERT membranes (5 ug/10 ul) for 2 hours at room temperature. The reaction mixture was dispensed into 96 well format minitubes at 10 ul/well and kept on ice. […] Bound ligand was counted using a Trilux counter.\nDissociation binding data were analyzed using GraphPad Prism 4 (GraphPad, San Diego, Calif.) and Xlfit 4 (IDBS, Guildford, Surrey, UK). […] The ratios (k/k0) of the rate (k) in the presence compounds over the rate (k0) in the absence of compounds were calculated for each compound concentration. […]"}, "[4]": {"system": "extracellular serotonin in the ventral hippocampus", "assay": "Microdialysis in rats, single administration ± (R)-citalopram", "format": "in vivo, rat", "details": "FIG. 3", "protocol": "as §1, §2, §3, §4"}}, "note": "pIC50: −log10 of the molar value."}
{"molecule": "CNCc1ccccc1Sc1c[nH]c2cc(F)ccc12", "note": "[[2-(6-Fluoro-1H-indol-3-ylsulfanyl)-benzyl]-methyl-amine]", "values": [{"measurement": "effect of (R)-citalopram on association of the [3H] ligand to SERT", "setting": "hSERT [1]", "value": "almost unaffected by (R)-citalopram"}, {"measurement": "increase in serotonin levels compared with (S)-citalopram", "setting": "[2]", "value": "faster and more pronounced increase in the serotonin levels than (S)-citalopram"}, {"measurement": "slowing of 3H (S)-citalopram dissociation rate (fold modulation)", "setting": "hSERT [3]; at 200 μM", "value": 5.4, "unit": "fold"}, {"measurement": "pIC50", "setting": "hSERT [3]; hSERT membranes, [3H]-(S)-citalopram 40 nM, room temperature, N=2, read-out: IC50 of binding to an allosteric site (from k/k0 of 3H-(S)-citalopram dissociation)", "value": 4.59}, {"measurement": "extracellular serotonin in the ventral hippocampus", "setting": "[4]", "value": "significant increase"}, {"measurement": "effect of concomitant (R)-citalopram on the increase in extracellular serotonin", "setting": "[4]; ventral hippocampus", "value": "not affected by concomitant administration of (R)-citalopram"}]}
